Test results published in ChEMBL document CHEMBL1158757, “Ophiocerins A-D and ophioceric acid: tetrahydropyran derivatives and an africane sesquiterpenoid from the freshwater aquatic fungus Ophioceras venezuelense” (J Nat Prod, 2005).
Activity calls are given as the source filed them.

Assays:
Type in all cases: functional, organism-based
Candida albicans = assay: Antifungal activity against Candida albicans at 200 ug/disk
Staphylococcus aureus = assay: Antibacterial activity against Staphylococcus aureus at 200 ug/disk
Escherichia coli = assay: Antimicrobial activity against Escherichia coli at 200 ug/disk

Measured: Activity

C[C@@H]1C[C@H](O)[C@@H](O)CO1
inactive: all assays above

C/C=C\C(=O)O[C@@H]1[C@H](O)[C@@H](O)CO[C@@H]1C
inactive: all assays above

C[C@@H]1C[C@@H](O)[C@@H](O)CO1
inactive: all assays above

C[C@@H]1C[C@@H](O)[C@H](O)CO1
inactive: all assays above

CC1=C2CC(C)(C)C[C@H]3C[C@@]3(C(=O)O)[C@@H]2CC1=O
inactive: all assays above
